Laboratory results as given in patent US9441023B2, “Peptide YY analogs” (GlaxoSmithKline Intellectual Property Development Limited, priority 2013, dated 2016).

Assays:
[1] = biological target: T1, human Neuropeptide Y receptor type 2 (Homo sapiens, UniProt P49146); test: melanophore assay, potency at human Neuropeptide Y receptor type 2; type: cell-based; conditions: Table 1, read-out: hNPY Y2 pEC50 (converted)
T1 construct: expressed in transfected cells; host or cells: melanophores (own knowledge: Xenopus laevis melanophores transfected with the receptor, as in the cited protocol)
T1 sequence (P49146 1-381): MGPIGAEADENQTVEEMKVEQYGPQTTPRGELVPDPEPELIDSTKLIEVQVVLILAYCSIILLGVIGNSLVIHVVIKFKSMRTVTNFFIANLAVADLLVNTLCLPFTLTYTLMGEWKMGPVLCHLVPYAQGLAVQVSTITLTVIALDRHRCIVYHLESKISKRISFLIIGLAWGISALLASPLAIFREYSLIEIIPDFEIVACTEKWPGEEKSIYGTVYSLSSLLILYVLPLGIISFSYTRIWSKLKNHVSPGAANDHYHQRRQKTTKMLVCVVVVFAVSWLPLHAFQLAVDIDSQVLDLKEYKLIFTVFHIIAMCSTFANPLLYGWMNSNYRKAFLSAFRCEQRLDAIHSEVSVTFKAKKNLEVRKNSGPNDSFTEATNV

[2] = cumulative food intake, lean mice (Model A), BioDaQ system; type: in vivo; conditions: Table 1; lean male C57BL/6 mice, 1 mg/kg s.c., cumulative food intake after 6 h, relative to vehicle; negative = reduction
Procedure: (§1) Cumulative food intake after 6 h was determined for the PYY analogs in either lean (Model A) or diet-induced obese (DIO) (Model B) C57BL/6 mice in a BioDaQ system for continuous monitoring of food intake (Research Diets Inc., New Brunswick, N.J.). […] Mice were placed singly into the BioDaQ cages and acclimatized for a minimum of 6 days and were allowed ad libitum access to food and water. Approximately 1 hour prior to lights-out, animals were dosed subcutaneously with either vehicle (20 mM Acetate buffer, pH 4.9 or 20% DMSO in water) or analogs dissolved in vehicle (1 mg/kg) (8 animals per group). Once all animals have been dosed, feeder gates were opened providing ad-libitum access to food. Continuous food intake was monitored and collected for 15 hours. […] P-values <0.05 were considered to indicate a significant difference between treatment groups.

[3] = cumulative food intake, diet-induced obese mice (Model B), BioDaQ system; type: in vivo; conditions: Table 1; DIO male C57BL/6 mice, 1 mg/kg s.c., cumulative food intake after 6 h, relative to vehicle; negative = reduction
Procedure: as §1

EC50 [1] [nM] | Compound | % reduction in food intake, model A [2] [%] | % reduction in food intake, model B [3] [%]
0.02 | CC(C)C[C@H](NC(=O)[C@H](CC(=O)O)NC(=O)[C@H](C)NC(=O)[C@H](Cc1ccc(O)cc1)NC(=O)[C@H](Cc1ccc(O)cc1)NC(=O)[C@H](CCCNC(=N)N)NC(=O)[C@H](CC(N)=O)NC(=O)[C@H](Cc1c[nH]c2ccccc12)NC(=O)[C@H](CCC(=O)O)NC(=O)[C@H](CCC(=O)O)NC(=O)[C@@H]1CCCN1C(=O)[C@H](CO)NC(=O)[C@H](C)NC(=O)[C@H](CC(=O)O)NC(=O)[C@H](CCCCN)NC(=O)CNC(=O)[C@@H]1CCCN1C(=O)[C@H](C)NC(=O)[C@H](CCC(=O)O)NC(=O)[C@@H]1CCCN1C(=O)[C@H](CCCCN)NC(=O)[C@@H]1CCCN1)C(=O)N[C@@H](CCCNC(=N)N)C(=O)N[C@@H](CCCCN)C(=O)N[C@@H](Cc1ccc(O)cc1)C(=O)N[C@@H](CC(C)C)C(=O)N[C@@H](CC(N)=O)C(=O)N[C@@H](Cc1c[nH]c2ccccc12)C(=O)N[C@@H](CC(C)C)C(=O)N[C@H](C(=O)N[C@@H](CCCNC(=N)N)C(=O)N[C@@H](CCC(N)=O)C(=O)N[C@@H](CCCNC(=N)N)C(=O)N[C@@H](Cc1ccc(O)cc1)C(N)=O)[C@@H](C)O [Example 4] | −83 | –
– | CC(C)C[C@H](NC(=O)[C@H](CO)NC(=O)[C@H](C)NC(=O)[C@H](Cc1ccc(O)cc1)NC(=O)[C@H](Cc1ccc(O)cc1)NC(=O)[C@H](CCCNC(=N)N)NC(=O)[C@H](CC(N)=O)NC(=O)[C@H](Cc1c[nH]c2ccccc12)NC(=O)[C@H](CCC(=O)O)NC(=O)[C@H](CCC(=O)O)NC(=O)[C@@H]1CCCN1C(=O)[C@H](CO)NC(=O)[C@H](C)NC(=O)[C@H](CC(=O)O)NC(=O)[C@H](CCCCN)NC(=O)CNC(=O)[C@@H]1CCCN1C(=O)[C@H](Cc1c[nH]cn1)NC(=O)[C@H](CCC(=O)O)NC(=O)[C@@H]1CCCN1C(=O)[C@H](CCCCN)NC(=O)[C@@H]1CCCN1)C(=O)N[C@@H](CCCNC(=N)N)C(=O)N[C@@H](CCCCN)C(=O)N[C@@H](Cc1ccc(O)cc1)C(=O)N[C@@H](CC(C)C)C(=O)N[C@@H](CC(N)=O)C(=O)N[C@@H](Cc1c[nH]c2ccccc12)C(=O)N[C@H](C(=O)N[C@H](C(=O)N[C@@H](CCCNC(=N)N)C(=O)N[C@@H](CCC(N)=O)C(=O)N[C@@H](CCCNC(=N)N)C(=O)N[C@@H](Cc1ccc(O)cc1)C(N)=O)[C@@H](C)O)C(C)C [Example 25] | – | −68
